The values that follow come from article PMC10344891, “Continuous enzyme activity assay for high-throughput classification of histone deacetylase 8 inhibitors” (Exploration of Targeted Anti-tumor Therapy, 2023).

One assay concerns trypsin. Kind of assay: Trypsin inhibition counter-assay (Bz-Arg-PNA). The assay is classed as biochemical. The conditions noted are these: 0.1 mg/mL trypsin, 400 µmol/L Bz-Arg-PNA, any applied concentration. Here is the method: where EA stands for the enzyme activity at a given ligand concentration x, Emax and E0 are the enzyme activities without ligand and under complete inhibition, respectively. IC50 is the ligand concentration at which half of the enzyme activity is inhibited and h is a measure of the steepness of the dose-response curve. […] All solutions were pre-incubated at 30°C. The two-step IC50 determination has been described previously. In short: KDAC8 was incubated with the respective ligands, and the enzymatic reaction was started by the addition of 20 µmol/L Boc-Lys(TFA)-AMC substrate (Bachem). […]. In this endpoint assay, the fluorescence signal was correlated to […] and normalized with a positive control without ligand. Data analysis was performed as described above. For IC50 determination due to trypsin inhibition, the basic IC50 procedure was identical. In the assay 0.1 mg/mL trypsin and 400 µmol/L Bz-Arg-PNA (Bachem) were used. The change in substrate absorbance was recorded in a microplate reader (Spark®, Tecan) at 405 nm. In this endpoint assay, the absorbance signal was correlated to […] and normalized with a positive control without ligand. Data analysis was performed as described above.

In assay [1] the target is T1, human KDAC8 (Homo sapiens, UniProt Q9BY41).
T1 sequence (Q9BY41 1-377): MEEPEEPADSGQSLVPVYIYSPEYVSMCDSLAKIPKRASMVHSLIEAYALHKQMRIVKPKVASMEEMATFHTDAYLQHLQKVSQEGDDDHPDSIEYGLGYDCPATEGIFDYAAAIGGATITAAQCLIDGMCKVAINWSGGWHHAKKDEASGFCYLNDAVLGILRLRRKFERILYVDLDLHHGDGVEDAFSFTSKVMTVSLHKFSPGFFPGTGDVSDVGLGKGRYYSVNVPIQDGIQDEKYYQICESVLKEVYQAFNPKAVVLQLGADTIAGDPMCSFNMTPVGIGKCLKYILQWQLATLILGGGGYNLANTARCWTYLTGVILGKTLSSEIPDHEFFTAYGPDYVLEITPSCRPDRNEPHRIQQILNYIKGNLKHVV
Kind of assay: Progress curves of continuous KDAC8 assay: relative KDAC8 activity after 5,000 s (stabilization curves). The conditions noted are these: ratio of late-stage to early-stage slopes, normalized to free KDAC8.
Procedure: The measurements were carried out in a black 96-well half-area microtiter plate (Greiner) at 30°C in assay buffer (see above). The respective ligand was diluted in Master Mix (see above) and binding kinetics were initiated by the addition of 10 nmol/L KDAC8. […] All solutions were pre-incubated at 30°C. Slopes were calculated for the early-stage (1,000 s to 2,000 s) and the late-stage (5,000 s to 6,000 s) using linear regression. The relative KDAC8 activity in the presence of different inhibitor concentrations was calculated as the ratio of the late-stage and early-stage slopes and normalized to free KDAC8 enzyme.

Assay [2] concerns the target T1, human KDAC8. Kind of assay: Continuous (one-step) KDAC8 enzyme activity assay, IC50 determination. On the set-up: full-length human KDAC8 was produced in E. coli BL21 (DE3); His6-SUMO (N, cleaved yes); made in house; host or cells: E. coli BL21 (DE3), pET14b vector. The assay is classed as biochemical. The conditions noted are these: for IC50: 10 nmol/L KDAC8, 60 min pre-incubation at 30°C, 20 µmol/L Boc-Lys(TFA)-AMC, 0.1 mg/mL trypsin, mean ± SD, n = 3; for Inhibition mode: classification of mode of action on KDAC8; for Time-dependence of IC50 values: pre-incubation times 5 min to 60 min, 100 nmol/L KDAC8.

The target in assay [3] is T1, human KDAC8. Kind of assay: Two-step endpoint KDAC8 activity assay, IC50 determination. The assay is classed as biochemical. On the set-up: full-length human KDAC8 was produced in E. coli BL21 (DE3); His6-SUMO (N, cleaved yes); made in house; host or cells: E. coli BL21 (DE3), pET14b vector. The conditions noted are these: 20 µmol/L Boc-Lys(TFA)-AMC, stopped with SATFMK, trypsin development, n = 3.

Assay [4] deals with T1, human KDAC8. The assay is described as follows: Thermal shift assay (SYPRO orange melting curves). The settings on record: for ΔTm at 100 µM: read-out: ΔTm (thermal stabilization of KDAC8). The assay is classed as binding. On the set-up: full-length human KDAC8 was produced in E. coli BL21 (DE3); His6-SUMO (N, cleaved yes); made in house; host or cells: E. coli BL21 (DE3), pET14b vector. Here is the method:
By utilizing a QuantStudio™ 5 real-time quantitative polymerase chain reaction (qPCR) system (Thermo Fisher Scientific), protein melting curves with SYPRO® orange as fluorescence dye were generated. […] A DMSO control without ligand was utilized as a positive control. After mixing the components, the samples were incubated at 30°C for 1 h in the real-time qPCR system to assure binding equilibrium. […] The fluorescence signal was plotted against the temperature. The melting point was calculated as the point of inflection of the first derivative using protein thermal shift software (Thermo Fisher Scientific).

The subject of a further assay is KDAC11. The settings on record: cited from earlier work.
Assay [5] addresses T1, human KDAC8. Kind of assay: Michaelis-Menten kinetics with the continuous KDAC8 assay. The assay is classed as biochemical. On the set-up: full-length human KDAC8 was produced in E. coli BL21 (DE3); His6-SUMO (N, cleaved yes); made in house; host or cells: E. coli BL21 (DE3), pET14b vector. The settings on record: n = 3. The method, then: The measurements were carried out in a black 96-well microtiter plate (Greiner) at 30°C in assay buffer (see above). A serial two-fold dilution ranging from 50 µmol/L substrate, Boc-Lys(TFA)-AMC (Bachem), to 780 nmol/L, was prepared in an assay buffer containing 0.1 mg/mL trypsin. The enzymatic reaction was initiated by the addition of 10 nmol/L KDAC8. […] The data points were plotted against time and blank corrected. For the determination of Michaelis-Menten parameters, a linear regression analysis of the initial slope (vi) of each curve was performed. Slopes were transformed into rates of AMC product formation using a calibration curve with different AMC concentrations. The obtained enzyme conversion rates were plotted against the respective substrate concentration and fitted to the Michaelis-Menten function using GraphPad Prism software. The turnover number (kcat) was calculated as
where vi is the substrate conversion rate and E is the enzyme concentration. All solutions were pre-incubated at 30°C.

The mark [6] stands for this setting: 100 µmol/L inhibitor, 12 µmol/L KDAC8, 1 h at 30°C before melting.

The term IC50 denotes the concentration needed to halve the response being measured. By ΔTm is commonly meant the shift of the melting midpoint relative to a reference. As a reminder, the Km is the substrate concentration at which the rate is half of its maximum. By kcat is commonly meant the number of substrate molecules converted per active site and unit of time at saturation.

Where a name gives a salt, the structure may show the parent alone. Read-outs that look alike come from different tables or passages of the source.

Take `CCN1C(=O)C=CC1=O` [NEM, N-ethylmaleimide]: in the assay on trypsin, the “Effect on trypsin activity” value was “no effect against trypsin”. The “Stabilization of KDAC8 activity (relative KDAC8 activity after 5,000 s vs free enzyme)” value on human KDAC8 [1] is “do not preserve the relative KDAC8 activity”. Besides, on human KDAC8 [2], the IC50 came out at 320 ± 90 nM, the Inhibition mode result was “Covalent inactivation” and the “Time-dependence of IC50 values” was “significant changes in IC50-values over time”. The IC50 against human KDAC8 [3] came out at 780 ± 180 nM. Moreover, on human KDAC8 [4] (setting [6]), the “ΔTm (thermal stabilization of KDAC8)” value turned out to be 4.58 ± 0.26 °C and the thermal shift (ΔTm) at 100 µM was in the range of 4 to 5 °C.
As for `O=C(CCCCCCC(=O)Nc1ccccc1)NO` [SAHA, suberoylanilide hydroxamic acid], in the assay with KDAC11, the “Stabilization of KDAC11” value is “capable of stabilizing KDAC11”. For the same compound, at human KDAC8 [2], the Inhibition mode entry is given as “Fast reversible binding” and the “Time-dependence of IC50 values” is “no time-dependent change in IC50-values”. Also, on human KDAC8 [2] (deduced from unchanged IC50 at shortest pre-incubation time), the “Time to establish binding equilibrium with KDAC8” value is given as “less than 5 min”. Moreover, the shift in melting temperature (ΔTm) at 100 µM at human KDAC8 [4] turned out to be 8.5 ± 0.06 °C.
As for `O=[N+]([O-])c1ccc(CCS(=O)(=O)c2nc(Cl)ns2)cc1` [TJ-19-29, 3-chloro-5-[2-(4-nitrophenyl)ethanesulfonyl]-1,2,4-thiadiazole], the “Effect on trypsin activity” value in the assay on trypsin was “no effect against trypsin”. For the same compound, the “Stabilization of KDAC8 activity (relative KDAC8 activity after 5,000 s vs free enzyme)” value on human KDAC8 [1] is reported as “do not preserve the relative KDAC8 activity”. Moreover, at human KDAC8 [2], the IC50 was determined as 30 ± 9 nM and the Inhibition mode entry is listed as “Covalent inactivation”. For the same compound, the midpoint of inhibition on human KDAC8 [3], the IC50, lay at 120 ± 40 nM. Further, at human KDAC8 [4] (setting [6]), the “ΔTm (thermal stabilization of KDAC8)” value was 4.4 ± 0.3 °C and the ΔTm at 100 µM was 4 to 5 °C.
In the case of `Cc1cc(=O)oc2cc(NC(=O)[C@H](CCCCNC(=O)C(F)(F)F)NC(=O)OC(C)(C)C)ccc12` [Boc-Lys(TFA)-AMC, tert-butyl N-[(1S)-1-[(4-methyl-2-oxo-chromen-7-yl)carbamoyl]-5-[(2,2,2-trifluoroacetyl)amino]pentyl]carbamate], the Michaelis constant (Km) on human KDAC8 [5] (assay buffer (low salt), 10 nmol/L KDAC8, 30°C) came to 8.9 ± 1.6 µM. Moreover, the kcat on human KDAC8 [5] (assay buffer) is 0.034 ± 0.002 s⁻¹.
For `CC(/C=C/C(=O)NO)=C\[C@H](C)C(=O)c1ccc(N(C)C)cc1` [TSA, trichostatin A], the Inhibition mode entry on human KDAC8 [2] is recorded as “Fast reversible binding”. The ΔTm at 100 µM on human KDAC8 [4] is 11.96 ± 0.06 °C.
